IC50 data for 21 compounds are collected here from patent US20240059703A1 (AMGEN INC., priority 2021, published 2024).

Test [1] relates to MIA PaCa-2 (human pancreatic carcinoma) cells. As to the kind of experiment: Cell Viability Assay (CellTiter-Glo), MIA PaCa-2. It is filed as cell-based. To be noted: Homo sapiens, MIA PaCa-2, 72 h. The protocol:
Serially-diluted compound or DMSO was added to the cells, and plates were incubated at 37° C., 5% CO2 for 72 h. Cell viability was measured using a CellTiter-Glo® Luminescent Cell Viability Assay kit (Promega) according to the manufacturer's protocol. The luminescence signal of treated samples was normalized to DMSO control, and data were analyzed using a 4-parameter logistic model to calculate IC50 values.
On the technique in general: ATP-based viability assays read luminescence as a measure of living cells.

The target of test [2] is KRAS G12C (Homo sapiens (Human), UniProt P01116, C118A/G12C). Description: 2 h coupled exchange assay. Type of test: biochemical. The settings on record: Avg 2 h Coupled exchange IC50, 2 h compound pre-incubation. The protocol: The term “2 h coupled exchange assay” or “20 h coupled exchange assay” as used herein refers to the assay described in the Section entitled “BIOLOGICAL EVALUATION.”

Test [3] deals with A549 (human lung carcinoma) cells. Description: Cell Viability Assay (CellTiter-Glo), A549. Type of test: cell-based. To be noted: Homo sapiens, A549, 72 h. Summed up: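 RPMI 1640/10% FBS; seed 1.67E+04 cells/mL, o/n 37° C., 5% CO2; serial-dilution cmpd 72 h; CellTiter-Glo luminescence vs DMSO; 4-parameter logistic fit → IC50.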

KRAS G12C, sequence (P01116 other isoform, or with tags, fused parts or gaps G12C/C118A): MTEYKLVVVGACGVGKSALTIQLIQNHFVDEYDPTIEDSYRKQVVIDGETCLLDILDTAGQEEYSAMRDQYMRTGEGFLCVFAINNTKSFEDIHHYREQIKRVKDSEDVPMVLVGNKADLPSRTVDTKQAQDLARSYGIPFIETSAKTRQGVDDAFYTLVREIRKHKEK

As a reminder, the IC50 is the concentration that inhibits the measured activity by half. Low values mean inhibition by little substance, high ones a need for much substance. For the compound `C=CC(=O)N1CC2(CCN(c3nc4cc(-c5scnc5C)c(C)cc4c(-c4ccccc4Cl)c3C#N)C2)C1` [Example 20-10, 2-(2-acryloyl-2,6-diazaspiro[3.4]octan-6-yl)-4-(2-chlorophenyl)-6-methyl-7-(4-methylthiazol-5-yl)quinoline-3-carbonitrile], the IC50 worked out at 5380 nM in test [1], 890 nM in test [2] and 6780 nM in test [3].
Take `C=CC(=O)N1CC2(CCN(c3nc4cc(OC(C)C)ccc4c(-c4ccccc4Cl)c3C#N)C2)C1` [Example 20-11, 4-(2-chlorophenyl)-7-(2-propanyloxy)-2-(2-(2-propenoyl)-2,6-diazaspiro[3.4]octan-6-yl)-3-quinolinecarbonitrile]: the half-maximal inhibitory concentration (IC50) in test [1] came to 3100 nM; in test [2] it was 834 nM; in test [3], 8810 nM.
For `C=CC(=O)N1CC2(CCN(c3nc4cc(-c5cncnc5)ccc4c(-c4ccc(F)cc4F)c3C#N)C2)C1` [Example 20-12, 4-(2,4-difluorophenyl)-2-(2-(2-propenoyl)-2,6-diazaspiro[3.4]octan-6-yl)-7-(5-pyrimidinyl)-3-quinolinecarbonitrile], in that order: 2060 nM, 245 nM and more than 25000 nM.
The matching figures for `C=CC(=O)N1CC2(CCN(c3nc4cc(-c5scnc5C)ccc4c(-c4ccc(F)cc4F)c3C#N)C2)C1` [Example 20-13, 4-(2,4-difluorophenyl)-7-(4-methyl-1,3-thiazol-5-yl)-2-(2-(2-propenoyl)-2,6-diazaspiro[3.4]octan-6-yl)-3-quinolinecarbonitrile]: 1070 nM, 104 nM and 5980 nM.
Regarding `C=CC(=O)N1CC2(CCN(c3nc4cc(-c5nccn5C)ccc4c(-c4ccc(F)cc4F)c3C#N)C2)C1` [Example 20-14, 4-(2,4-difluorophenyl)-7-(1-methyl-1H-imidazol-2-yl)-2-(2-(2-propenoyl)-2,6-diazaspiro[3.4]octan-6-yl)-3-quinolinecarbonitrile], the IC50 in test [1] turned out to be 1350 nM; in test [2], 243 nM; in test [3], 9150 nM.
For `C=CC(=O)N1CC2(CCN(c3nc4cc(-c5scnc5C)cnc4c(-c4ccccc4F)c3C#N)C2)C1` [Example 20-15, 4-(2-fluorophenyl)-7-(4-methyl-1,3-thiazol-5-yl)-2-(2-(2-propenoyl)-2,6-diazaspiro[3.4]octan-6-yl)-1,5-naphthyridine-3-carbonitrile], in that order: 649 nM, 116 nM and more than 5000 nM.
For `C=CC(=O)N1CC2(CCN(c3nc4cc(-c5scnc5COC)ccc4c(-c4ccccc4F)c3C#N)C2)C1` [Example 20-16, 4-(2-fluorophenyl)-7-(4-(methoxymethyl)-1,3-thiazol-5-yl)-2-(2-(2-propenoyl)-2,6-diazaspiro[3.4]octan-6-yl)-3-quinolinecarbonitrile], in that order: 817 nM, 124 nM and 9150 nM.
For the compound `C=CC(=O)N1CC2(CCN(c3nc4cc(-c5scnc5C)ccc4c(-c4ccccc4OC)c3C#N)C2)C1` [Example 20-17, 4-(2-methoxyphenyl)-7-(4-methyl-1,3-thiazol-5-yl)-2-(2-(2-propenoyl)-2,6-diazaspiro[3.4]octan-6-yl)-3-quinolinecarbonitrile], the figures for the IC50 in test [1], in test [2] and in test [3] were 1820 nM, 431 nM and 7580 nM, respectively.
As to `C=CC(=O)N1CC2(CCN(c3nc4cc(-c5scnc5CO)ccc4c(-c4ccccc4F)c3C#N)C2)C1` [Example 20-18, 4-(2-fluorophenyl)-7-(4-(hydroxymethyl)-1,3-thiazol-5-yl)-2-(2-(2-propenoyl)-2,6-diazaspiro[3.4]octan-6-yl)-3-quinolinecarbonitrile], the IC50 in test [1] is 651 nM; in test [2] it was 95 nM; in test [3], more than 5000 nM.
Consider `C=CC(=O)N1CC2(CCN(c3nc4cc(-c5cncs5)ccc4c(-c4ccccc4F)c3C#N)C2)C1` [Example 20-19, 4-(2-fluorophenyl)-2-(2-(2-propenoyl)-2,6-diazaspiro[3.4]octan-6-yl)-7-(1,3-thiazol-5-yl)-3-quinolinecarbonitrile], for which the IC50 in test [1] turned out to be 2070 nM; in test [2] it was 325 nM; in test [3] it was 4770 nM.
For `C=CC(=O)N1CC2(CCN(c3nc4cc(-c5scnc5C)ccc4c(-c4ccccc4O)c3C#N)C2)C1` [Example 20-20, 4-(2-hydroxyphenyl)-7-(4-methyl-1,3-thiazol-5-yl)-2-(2-(2-propenoyl)-2,6-diazaspiro[3.4]octan-6-yl)-3-quinolinecarbonitrile], in that order: 1750 nM, 162 nM and 6850 nM.
On to `C=CC(=O)N1CC2(CCN(c3nc4cc(-c5scnc5C)cnc4c(-c4cccc(O)c4)c3C#N)C2)C1` [Example 20-21, 4-(3-hydroxyphenyl)-7-(4-methyl-1,3-thiazol-5-yl)-2-(2-(2-propenoyl)-2,6-diazaspiro[3.4]octan-6-yl)-1,5-naphthyridine-3-carbonitrile], for which the IC50 in test [1] amounted to 4970 nM; in test [2] it was 958 nM; in test [3], 10800 nM.
For `C=CC(=O)N1CC2(CCN(c3nc4cc(-c5scnc5C)cnc4c(-c4ccc(F)c(O)c4)c3C#N)C2)C1` [Example 20-22, 4-(4-fluoro-3-hydroxyphenyl)-7-(4-methyl-1,3-thiazol-5-yl)-2-(2-(2-propenoyl)-2,6-diazaspiro[3.4]octan-6-yl)-1,5-naphthyridine-3-carbonitrile], in that order: 7480 nM, 371 nM and 12100 nM.
For `C=CC(=O)N1CC2(CCN(c3nc4c(c(-c5ccccc5F)c3C#N)CCN(c3scnc3C)C4)C2)C1` [Example 21-1, 4-(2-fluorophenyl)-7-(4-methyl-1,3-thiazol-5-yl)-2-(2-(2-propenoyl)-2,6-diazaspiro[3.4]octan-6-yl)-5,6,7,8-tetrahydro-1,7-naphthyridine-3-carbonitrile], in that order: 327 nM, 41 nM and more than 5000 nM.
The matching figures for `C=CC(=O)N1CC2(CCN(c3nc4c(c(-c5ccccc5F)c3C#N)CCN(c3ccnn3C)C4)C2)C1` [Example 21-2, 4-(2-fluorophenyl)-7-(1-methyl-1H-pyrazol-5-yl)-2-(2-(2-propenoyl)-2,6-diazaspiro[3.4]octan-6-yl)-5,6,7,8-tetrahydro-1,7-naphthyridine-3-carbonitrile]: 805 nM, 189 nM and more than 5000 nM.
Regarding `C=CC(=O)N1CC2(CCN(c3nc4c(c(-c5ccc(F)cc5F)c3C#N)CCN(c3scnc3C)C4)C2)C1` [Example 21-3, 4-(2,4-difluorophenyl)-7-(4-methyl-1,3-thiazol-5-yl)~2-(2-(2-propenoyl)-2,6-diazaspiro[3.4]octan-6-yl)-5,6,7,8-tetrahydro-1,7-naphthyridine-3~carbonitrile], the IC50 in test [1] is 190 nM; in test [2], 25 nM; in test [3], more than 5000 nM.
For `C=CC(=O)N1CC2(CCN(c3nc4c(c(-c5ccccc5F)c3C#N)CCN(c3scnc3C)C4C)C2)C1` [Example 21-4, (8R)-4-(2-fluorophenyl)-8-methyl-7-(4-methyl-1,3-thiazol-5-yl)-2-(2-(2-propenoyl)-2,6-diazaspiro[3.4]octan-6-yl)-5,6,7,8-tetrahydro-1,7-naphthyridine-3-carbonitrile (8S)-4-(2-fluorophenyl)-8-methyl-7-(4-methyl-1,3-thiazol-5-yl)-2-(2-(2-propenoyl)-2,6-diazaspiro[3.4]octan-6-yl)-5,6,7,8-tetrahydro-1,7-naphthyridine-3-carbonitrile], in that order: 1610 nM, 85 nM and 10100 nM.
For the compound `C=CC(=O)N1CC2(CCN(c3nc4c(c(-c5ccccc5F)c3C#N)CCN(c3scnc3C)[C@@H]4C)C2)C1` [Example 21-5, (8R)-4-(2-fluorophenyl)-8-methyl-7-(4-methyl-1,3-thiazol-5-yl)-2-(2-(2-propenoyl)-2,6-diazaspiro[3.4]octan-6-yl)-5,6,7,8-tetrahydro-1,7-naphthyridine-3-carbonitrile], the IC50 worked out at 454 nM in test [1], 57 nM in test [2] and 3980 nM in test [3].
With `C=CC(=O)N1CC2(CCN(c3nc4c(c(-c5ccccc5F)c3C#N)CCN(c3scnc3C)[C@H]4C)C2)C1` [Example 21-6, (8S)-4-(2-fluorophenyl)-8-methyl-7-(4-methyl-1,3-thiazol-5-yl)-2-(2-(2-propenoyl)-2,6-diazaspiro[3.4]octan-6-yl)-5,6,7,8-tetrahydro-1,7-naphthyridine-3-carbonitrile], the IC50 in test [1] worked out at 4570 nM; in test [2], 930 nM; in test [3], 11200 nM.
For `C=CC(=O)N1CC2(CCN(c3nc4c(c(-c5ccc(F)cc5F)c3C#N)CCN(c3ccc(OC)cc3)C4)C2)C1` [Example 21-7, 4-(2,4-difluorophenyl)-7-(4-methoxyphenyl)-2-(2-(2-propenoyl)-2,6-diazaspiro[3.4]octan-6-yl)-5,6,7,8-tetrahydro-1,7-naphthyridine-3-carbonitrile], in that order: 749 nM, 94 nM and 6020 nM.
The matching figures for `C=CC(=O)N1CC2(CCN(c3nc4c(c(-c5cc(O)ccc5F)c3C#N)CC3CCC4N3C(C)C)C2)C1` (stereo not drawn) [Example 21-8]: 5560 nM, 933 nM and more than 25000 nM.
